Data on one compound can be found in ChEMBL document CHEMBL4130359, “Indazole-based ligands for estrogen-related receptor α as potential anti-diabetic agents” (Eur J Med Chem, 2017).

Data set [1] in a line: Volume of distribution at steady state in Sprague-Dawley rat at 2 mg/kg, iv by LC-MS analysis. The note with it: in vivo, read-out: Vdss. Format: ADME, organism-based.
Data set [2] can be described thus: Cmax in CD-1 mouse at 20 mg/kg administered via oral gavage by LC-MS analysis. Format: ADME, organism-based. Also noted: dose 20 mg/kg, route oral. The following applies: in vivo.
Data set [3] in a line: AUC (0 to 24 hrs) in Sprague-Dawley rat at 10 mg/kg administered via oral gavage by LC-MS analysis. Format: ADME, organism-based. Also noted: dose 10 mg/kg, time < 24 hr, route oral. The following applies: in vivo.
Data set [4] is described as follows: AUC (0 to 24 hrs) in […] at 15 mg/kg administered via oral gavage by LC-MS analysis. Format: ADME, organism-based. Also noted: dose 15 mg/kg, time < 24 hr, route oral. The note with it: in vivo.
A short description of data set [5]: Terminal half life in CD-1 mouse at 20 mg/kg administered via oral gavage by LC-MS analysis. In kind it is ADME, organism-based. The note with it: in vivo, read-out: beta t1/2 (converted).
The test system of data set [6] is Rattus norvegicus. Put plainly: Antidiabetic activity in Zucker rat sub-chronic fa/fa prediabetic model assessed as fasting blood glucose level at 3 mg/kg, po qd for 31 days measured on day 29 post dose (reference value: 163 +/- 9.2 mg/dl). In kind it is functional.
Data set [7] concerns Rattus norvegicus. Put plainly: Antidiabetic activity in Zucker rat sub-chronic fa/fa prediabetic model assessed as fasting blood glucose level at 50 mg/kg, po qd for 31 days measured on day 29 post dose (reference value: 163 +/- 9.2 mg/dl). Format: functional.
Data set [8] deals with Rattus norvegicus. Description: Antidiabetic activity in Zucker rat sub-chronic fa/fa prediabetic model assessed as reduction in blood glucose AUC (0 to 120 min) at 1 mg/kg, po qd for 31 days measured on day 29 post dose by OGTT relative to control. Format: functional. Also noted: scale not given: the % may be the effect or the level left.
Data set [9] concerns Rattus norvegicus. Put plainly: Toxicity in Zucker rat sub-chronic fa/fa prediabetic model assessed as change in body weight at 50 mg/kg, po qd for 29 days measured on day 1 to 29 during compound dosing (reference value: 140 +/- 7 g). Format: organism-based. The note with it: in vivo, 696 h.
In data set [10] the test system is Rattus norvegicus. Put plainly: Toxicity in Zucker rat sub-chronic fa/fa prediabetic model assessed as heart weight at 1 mg/kg, po qd for 31 days measured on day 32 (reference value: 1.19 +/- 0.04 g). Format: organism-based. The following applies: in vivo, 744 h.
The test system of data set [11] is Rattus norvegicus. Description: Toxicity in Zucker rat sub-chronic fa/fa prediabetic model assessed as serum AST level at 1 mg/kg, po qd for 31 days measured on day 32 (reference value: 187 +/- 37 U/L). Format: organism-based. The note with it: in vivo, 744 h.
The test system of data set [12] is Rattus norvegicus. Put plainly: Toxicity in Zucker rat sub-chronic fa/fa prediabetic model assessed as serum AST level at 50 mg/kg, po qd for 31 days measured on day 32 (reference value: 187 +/- 37 U/L). In kind it is organism-based. The note with it: in vivo, 744 h.
Data set [13] relates to Rattus norvegicus. Put plainly: Toxicity in Zucker rat sub-chronic fa/fa prediabetic model assessed as serum BUN level at 1 mg/kg, po qd for 31 days measured on day 32 (reference value: 28.3 +/- […]). Format: organism-based. The following applies: in vivo, 744 h.
The test system of data set [14] is Rattus norvegicus. Put plainly: Antidiabetic activity in Zucker rat sub-chronic fa/fa prediabetic model assessed as increase in serum adiponectin level administered orally once daily for 32 days by ELISA. In kind it is functional, organism-based. A general note: ELISA stands for enzyme-linked immunosorbent assay.
Data set [15] is described as follows: Cmax in […] chronic ob/ob model at 10 mg/kg, po qd for 28 days measured on day 28 post last dose. In kind it is ADME, organism-based. Also noted: dose 10 mg/kg, route oral. The note with it: in vivo.
Data set [16] deals with Rattus norvegicus. Put plainly: Antidiabetic activity in po dosed Zucker rat chronic ob/ob model assessed as reduction in HbA1c level administered once daily for 31 days measured on day 28 post dose by OGTT. In kind it is functional, organism-based.
Data set [17] concerns Rattus norvegicus. Description: Toxicity in […] chronic ob/ob model assessed as change in body weight at 3 mg/kg, po qd for 28 days measured on day 1 to 28 during compound dosing (reference value: 9.9 +/- 1.27 g). Format: organism-based. The following applies: in vivo, 672 h.
The subject of data set [18] is Rattus norvegicus. Put plainly: Toxicity in […] chronic ob/ob model assessed as brown adipose tissue weight at 10 mg/kg, po qd for 31 days measured on day 32 (reference value: 0.59 +/- 0.05 g). Format: organism-based. The note with it: in vivo, 744 h.
Data set [19] deals with Rattus norvegicus. Description: Toxicity in […] chronic ob/ob model assessed as serum triglyceride level at 3 mg/kg, po qd for 31 days measured on day 32 (reference value: 329 +/- 36 mg/dl). The note with it: in vivo, 744 h. Format: organism-based.
Data set [20] deals with Rattus norvegicus. Put plainly: Toxicity in […] chronic ob/ob model assessed as decrease in epididymal white adipose tissue weight at administered po qd for 31 days measured on day 32. Format: organism-based. The following applies: in vivo, 744 h.
The test system of data set [21] is Rattus norvegicus. Put plainly: Effect on COX4I1 gene expression in epididymal white adipose tissue of Zucker rat sub-chronic fa/fa prediabetic model at 10 mg/kg, po qd for 15 days by microarray analysis relative to control. Format: functional.
Data set [22] concerns Rattus norvegicus. Put plainly: Effect on TNFRSF1B gene expression in epididymal white adipose tissue of Zucker rat sub-chronic fa/fa prediabetic model at 10 mg/kg, po qd for 15 days by microarray analysis relative to control. Format: functional.
Data set [23] deals with Rattus norvegicus. Description: Effect on IL36B gene expression in epididymal white adipose tissue of Zucker rat sub-chronic fa/fa prediabetic model at 10 mg/kg, po qd for 15 days by microarray analysis relative to control. Format: functional.
The subject of data set [24] is Rattus norvegicus. Description: Effect on AADAT gene expression in epididymal white adipose tissue of Zucker rat sub-chronic fa/fa prediabetic model at 10 mg/kg, po qd for 15 days by microarray analysis relative to control. In kind it is functional.

As for `CN1CC[C@@H](N2C(=O)S/C(=C\c3ccc4c(cnn4Cc4ccc(Cl)cc4C(F)(F)F)c3)C2=O)[C@H](F)C1`, the Vd in data set [1] worked out at 11.2 L/kg. Moreover, the results for the Cmax in [2] and in [15] were 2000 ng/mL and 454 ng/mL, respectively. The AUC(0-t) – broadly, exposure summed from dosing to a finite time, without extrapolation to infinity – at 24 h came out at 5410 ng·h/mL in data set [3] and 34500 ng·h/mL in [4]. Moreover, the half-life in [5] is 10.6 h. The Activity worked out at 118 mg/dL in the data set with Rattus norvegicus [6]; 105 mg/dL in the data set on Rattus norvegicus [7]; 23% with Rattus norvegicus [8]; 157 g in the data set with Rattus norvegicus [9]; 1.16 g in the data set on Rattus norvegicus [10]; 158 U/L in the data set with Rattus norvegicus [11]. Further, the Activity was 87 U/L in the data set with Rattus norvegicus [12]; 26.9 mg/dL in the data set with Rattus norvegicus [13]; “Dose-dependent effect” in the data set on Rattus norvegicus [14]; “Dose-dependent effect” with Rattus norvegicus [16]; 6.3 g in the data set with Rattus norvegicus [17]; 0.99 g with Rattus norvegicus [18]. In addition, the Activity in the data set with Rattus norvegicus [19] is 223 mg/dL; in the data set with Rattus norvegicus [20] it was “Dose-dependent effect”. Moreover, the “fold change (FC)” value was 1.323 with Rattus norvegicus [21], -1.505 with Rattus norvegicus [22], -1.232 in the data set with Rattus norvegicus [23] and 2.931 in the data set with Rattus norvegicus [24].
